These results are taken from patent US5266594A, “Inhibitors of nitric oxide synthase and use thereof to prevent glutamate neurotoxicity” (priority 1992, dated 1993).

Data set [1] deals with macrophage NOS (activated macrophage homogenates). Put plainly: inhibition of NOS activity in activated macrophage homogenates in vitro. The note with it: guanidinoalkanoic acid series. It is filed as biochemical. The text has this: (§1) Inhibitors of NOS are compounds which compete for the substrate binding site of NOS or other sites on the enzyme, and include both reversible and irreversible inhibitors. The present invention contemplates the use of any physiologically acceptable inhibitor which inhibits NOS activity. The effectiveness of a compound, and its relative potency as an NOS inhibitor, can be tested and routinely determined by measuring inhibition of NOS activity by monitoring the conversion of arginine to citrulline by NOS in, for example, cerebellar homogenates. A reduction in citrulline formation indicates inhibitory activity of the compound. The percent reduction in citrulline formation, compared to the amount of citrulline formed in the absence of the compound being tested, indicates the potency of the compound as an NOS inhibitor.
(§2) NOS activity was measured by monitoring the conversion of [^3 H]arginine to [^3 H]citrulline as described by Bredt and Snyder (Proc. Natl. Acad. Sci USA (1990) 87682-685). Briefly, enzyme assays contained 25 μl of soluble tissue, 50 μl of […] [^3 H]arginine and 1 mM NADPH, and 25 μl of 3 mM CaCl2. After a 15 minute incubation at room temperature, the assays were terminated with 3 ml of 20 mM Hepes (pH 5.5) with 2 mM EDTA, and were applied to 0.5 ml columns of Dowex AG50WX8 (Na^+ form). [^3 H]citrulline was quantified by liquid scintillation spectroscopy of the 3 ml flow-through.
(§3) Accordingly, the effects of 2, 4 and 24 hours of preincubations of cerebellar supernatants (FIG. 2A) and activated macrophage homogenates (FIG. 2B) with NO2 Arg were examined. The preincubation was conducted at 4° C. since NOS is unstable at higher temperature for long periods of time. Enzymatic incubation was conducted for only 5 minutes to minimize any reaction of the inhibitor with the enzyme in the course of the incubation procedure.
Macrophages were activated as described by Tayeh and Marletta (J. Biol. Chem. (1989) 264:19654-19658) with 3.5 ng/ml LPS from E. coli and 5 units/ml recombinant murine γ-interferon for 24 hours at 37° C. Cells were homogenized in 20 mM Hepes (pH 7.4).

The subject of data set [2] is brain or macrophage enzyme (NOS). Briefly: NOS inhibition and brain/macrophage selectivity of arginine, nitroarginine and guanidinoalkanoic acid analogs. It is filed as biochemical.
Data set [3] addresses brain NOS (cerebellar NOS) (Rattus norvegicus, UniProt P29476). Put plainly: inhibition of NOS activity, conversion of [^3 H]arginine to [^3 H]citrulline, cerebellar homogenates/supernatants in vitro. Conditions: for inhibition of brain NOS, in words: guanidinoalkanoic acid series.
Excerpt: as §1
Rat cerebella were homogenized in 10 vols. (w/v) […] Tris (pH 7.4), 2 mM EDTA. Homogenates were centrifuged at 10,000×g for 15 minutes at 4° C. Supernatant preparations were used in the enzyme assays. Cerebellar tissue was dialyzed (Spectra/Por, 10,000 MWCO, EDTA-treated cellulose dialysis tubing) against 20 mM Tris (pH 7.4), 2 mM EDTA (300 ml×2) for 24 hours at 4° C.
Cerebellar homogenates were incubated with arginine derivatives for one hour at 4° C., and dialyzed overnight. Aliquots (25 μg protein) were assayed for NOS activity before and after dialysis.
as §2, §3
Cerebellar supernatants were made as described in Example 1.

The test system of data set [4] is cortical cell cultures. Briefly: cells. It is filed as cell-based, rat. Conditions: for reversal of NO2 Arg protection from NMDA cytotoxicity: L-Arg 1 mM with 100 μM NO2 Arg, homoarginine, D-Arg, FIG. 7; for EC50: cortical cultures; for effect on NMDA-induced cell death: 300 μM NMDA (with 10 μM glycine), Hb at 500 μM; for effect on SNP-induced cell death: Hb 500 μM. The protocol: Primary dissociated cell cultures were prepared from fetal rats (13-to 14-day gestation for cortex and caudate-putamen cultures and 19- to 20-day gestation for hippocampal cultures). The tissue of interest was dissected, incubated for 15 minutes in 0.027% trypsin in Brooks-Logan solution (5% phosphate-buffered saline/0.04M sucrose/10 mM Hepes/0.03M glucose, pH 7.4), and then transferred to modified Eagle's medium (MEM) 10% horse serum/10% fetal bovine serum/2 mM glutamine for trituration. Dissociated cells were plated at a density of 3-4×10^5 cells per well in polyornithine-coated 15-mm multiwell plates. After 4 days the cells were treated with 10 μg of 5-fluoro-2'-deoxyuridine to prevent proliferations of noneuronal cells. Cells were maintained in MEM/5% horse serum/2 mM glutamine in 8% CO2 /humidified atmosphere at 37° C. The medium was changed twice weekly. Mature neurons (3-4 weeks) were used.
Cells were exposed to excitatory amino acids according to the method of Koh and Choi (J. Neurosci. (1988) 8:2153-2163). Before exposure, the cells were washed three times with Tris-buffered control salt solution (CSS), containing 120 mM NaCl/5.4 mM KCl/1.8 mM CaCl2 /25 mM Tris hydrochloride, pH 7.4 at room temperature/15 mM glucose. Brief exposures to glutamate, NMDA (plus 10 μM glycine), quisqualate, and sodium nitroprusside (SNP) were performed for 5 minutes in CSS. The exposure solution was then washed away and replaced by MEM with 21 mM glucose; then the cells were placed in an incubator for 20-24 hour. Long exposures to kainate were performed in MEM/21 mM glucose for 20-24 hour in the incubator. After exposure to the excitatory amino acids, the medium was replaced by CSS/0.4% trypan blue, which stains nonviable cells. Two to four photographs (10-20×) were made of each well, and viable versus nonviable cells were counted. The cytotoxicity data represent 6-24 separate wells assayed per data point, with ≈500-1500 cells counted per well. Neuronal cell injury was also assessed by measuring the release of lactate dehydrogenase by damaged or destroyed cells into the extracellular fluid following drug exposure.
Before initiating cytotoxicity experiments with NOS inhibitors, the potency of NMDA applied for 5 minutes in inducing cell death was evaluated by examining exclusion of 0.4% trypan blue by viable cells or measuring lactate dehydrogenase released by damaged or destroyed cells into the extracellular fluid.
To examine the role of NO in other forms of glutamate neurotoxicity, the effects of NO2 Arg cytotoxicity induced by quisqualate, kainate, and NMDA were compared. […] Data are means ±SEM (n=6-24). Cell death was determined by 0.4% trypan blue exclusion by viable cells.

The subject of a further data set is NOS. The note with it: cited from earlier work.
A further data set relates to cGMP formation. Put plainly: cGMP formation in cortical cell cultures (RIA). Conditions: for effect on NMDA stimulation of cGMP formation: 300 μM NMDA (plus 10 μM glycine), 1 minute, 100 μM NO2 Arg, 1 mM L-Arg, 100 units of SOD, 500 μM Hb. It is filed as cell-based, rat.
Data set [5] relates to cortical cell cultures. The note with it: Koh et al. (1990); cited from earlier work.

Entries after “also recorded” stand apart in the source; their conditions may differ. Like-named read-outs stand apart in the source and are kept apart here.

Chain of brain NOS (cerebellar NOS) (P29476 whole entry): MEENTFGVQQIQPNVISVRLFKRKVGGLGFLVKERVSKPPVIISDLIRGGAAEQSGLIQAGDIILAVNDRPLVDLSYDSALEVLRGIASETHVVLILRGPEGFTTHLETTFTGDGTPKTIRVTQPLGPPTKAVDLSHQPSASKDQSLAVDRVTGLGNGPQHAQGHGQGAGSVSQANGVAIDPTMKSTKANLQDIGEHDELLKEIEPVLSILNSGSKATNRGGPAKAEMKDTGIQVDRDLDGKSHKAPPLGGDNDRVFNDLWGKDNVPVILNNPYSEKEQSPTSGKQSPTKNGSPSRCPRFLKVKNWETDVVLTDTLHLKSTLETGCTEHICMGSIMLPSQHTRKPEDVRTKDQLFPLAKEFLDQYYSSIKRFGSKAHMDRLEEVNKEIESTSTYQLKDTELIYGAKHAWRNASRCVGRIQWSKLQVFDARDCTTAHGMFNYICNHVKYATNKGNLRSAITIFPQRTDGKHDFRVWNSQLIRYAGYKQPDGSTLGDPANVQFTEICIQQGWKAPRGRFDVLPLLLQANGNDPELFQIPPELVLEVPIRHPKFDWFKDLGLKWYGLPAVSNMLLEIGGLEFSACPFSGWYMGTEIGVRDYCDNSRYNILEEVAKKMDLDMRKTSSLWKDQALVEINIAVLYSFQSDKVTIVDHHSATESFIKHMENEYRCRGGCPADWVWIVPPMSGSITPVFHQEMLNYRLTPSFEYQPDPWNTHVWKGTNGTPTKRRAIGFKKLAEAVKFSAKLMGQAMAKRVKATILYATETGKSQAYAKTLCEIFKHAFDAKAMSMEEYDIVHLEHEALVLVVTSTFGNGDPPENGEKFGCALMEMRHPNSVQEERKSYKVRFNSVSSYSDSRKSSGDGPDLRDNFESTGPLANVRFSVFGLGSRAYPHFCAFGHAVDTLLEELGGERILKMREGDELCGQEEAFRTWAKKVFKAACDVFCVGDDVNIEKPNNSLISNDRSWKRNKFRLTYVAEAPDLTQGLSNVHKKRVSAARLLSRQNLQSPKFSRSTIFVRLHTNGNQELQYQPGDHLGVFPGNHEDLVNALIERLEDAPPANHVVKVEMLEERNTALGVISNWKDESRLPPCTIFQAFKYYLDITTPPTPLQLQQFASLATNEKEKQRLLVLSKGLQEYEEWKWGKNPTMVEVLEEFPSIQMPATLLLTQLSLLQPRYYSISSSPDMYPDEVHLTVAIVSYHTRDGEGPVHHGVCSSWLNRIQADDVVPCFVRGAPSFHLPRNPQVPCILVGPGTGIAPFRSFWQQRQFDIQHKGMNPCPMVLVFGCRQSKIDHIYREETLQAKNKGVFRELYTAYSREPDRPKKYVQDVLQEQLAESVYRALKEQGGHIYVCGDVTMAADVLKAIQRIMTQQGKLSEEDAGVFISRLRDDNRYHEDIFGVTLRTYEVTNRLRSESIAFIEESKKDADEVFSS
Method for cGMP formation: Primary dissociated cell cultures were prepared from fetal rats (13-to 14-day gestation for cortex and caudate-putamen cultures and 19- to 20-day gestation for hippocampal cultures). […] Dissociated cells were plated at a density of 3-4×10^5 cells per well in polyornithine-coated 15-mm multiwell plates. After 4 days the cells were treated with 10 μg of 5-fluoro-2'-deoxyuridine to prevent proliferations of noneuronal cells. Cells were maintained in MEM/5% horse serum/2 mM glutamine in 8% CO2 /humidified atmosphere at 37° C. The medium was changed twice weekly. Mature neurons (3-4 weeks) were used.
For determination of cGMP the cells were washed three times with CSS. […] After ether extraction, cGMP levels were determined by RIA.
Data are means ±SEM (n=6-8).
Data are means ±SEM (n=8-12).

Consider `N=C(N)NCCCCC(=O)O` [5-GPA, 5-guanidinopentanoic acid], for which the “inhibition of macrophage enzyme, in words” value in data set [1] is given as “potent inhibitors”. The “selectivity between brain and macrophage enzyme, in words” value in data set [2] is given as “good selectivity toward the macrophage enzyme”. Moreover, in data set [3], the “inhibition of brain NOS, in words” value was “inactive against the brain NOS”.

Take `N=C(N)NCCCCCC(=O)O` [6-GHA, 6-guanidinohexanoic acid]: the “inhibition of macrophage enzyme, in words” value in data set [1] is reported as “potent inhibitors”. In data set [2], the “selectivity between brain and macrophage enzyme, in words” value is recorded as “good selectivity toward the macrophage enzyme”. The “inhibition of brain NOS, in words” value in data set [3] is “inactive against the brain NOS”.

Regarding `N=C(N)NCCC[C@@H](N)C(=O)O` [D-Arg, D-arginine], the “reversal of NO2 Arg protection from NMDA cytotoxicity” value (“reversal of NO2 Arg protection” for short) with cortical cell cultures [4] is recorded as “much weaker than L-Arg; also recorded: comparable to that obtained with 10 μM L-Arg”.

In the case of `N=C(N)NCCCC[C@H](N)C(=O)O` [Homoarginine, homoarginine], the “reversal of NO2 Arg protection” value in the data set on cortical cell cultures [4] is recorded as “reverses effects of NO2 Arg but is less potent than L-Arg”. Moreover, in the data set with NOS (Knowles et al. (1989)), the “affinity for NOS” value is listed as “less affinity for NOS than L-Arg”.

With `N=C(N)NCCC[C@H](N)C(=O)O` [L-Arg, L-arginine], the results for the “reversal of NO2 Arg protection” value in the data set on cortical cell cultures [4], in the data set with cortical cell cultures [4] (listed as L-arginine) and with cortical cell cultures [4] (listed as L-arginine (L-Arg)) were “reverses the inhibition by 100 μM NO2 Arg”, “competitively reversed by L-arginine” and “completely reverses the effect of NO2 Arg”, respectively. In addition, the “concentration required to obtain maximal NMDA effects” value in the data set with cortical cell cultures [4] (graded L-Arg added to L-Arg-free medium) amounted to 100 µM. Further, the “protection against quisqualate-induced cell death” value in the data set on cortical cell cultures [4] (quisqualate) is listed as “reversal by L-Arg”. In the data set on cGMP formation, the “effect on NMDA stimulation of cGMP formation” value is reported as “competitively reversible by L-Arg”.

Take `CNC(=N)NCCC[C@H](N)C(=O)O` [MeArg, L-N^ω -monomethylarginine]: in the data set with cortical cell cultures [4], the “prevention of neurotoxicity, in words” value is reported as “prevent neurotoxicity in proportion to their relative potencies as NOS inhibitors”. The EC50 with cortical cell cultures [4] (Rattus norvegicus, NMDA and related excitatory amino acids, read-out: EC50 for preventing neurotoxicity elicited by N-methyl-D-aspartate) is 170 µM; in the data set on cortical cell cultures [4] (Rattus norvegicus, NMDA, read-out: concentration giving 50% prevention of NMDA-induced cell death) it was 170 µM. The Ki at NOS (Dwyer et al. (1991), read-out: Ki, inhibition of NOS activity of purified enzyme preparations) is 2 µM. In addition, the “relative potency as inhibitor of NOS activity” value in data set [3] (cerebellar supernatant preparations, FIG. 1) is recorded as “NO2 Arg is a more potent inhibitor of NOS activity than MeArg”.

As to `CN[C@H](CC(=O)O)C(=O)O` [NMDA, N-methyl-D-aspartate], the CC50 with cortical cell cultures [4] (Rattus norvegicus, 5 min, read-out: toxic LD50) is 280 µM; in the data set with cortical cell cultures [4] (Rattus norvegicus, arginase-treated preparations / L-Arg-free medium, read-out: 50% lethal concentration), 7500 µM. Moreover, the cytotoxicity at 300 µM amounted to 60% in the data set with cortical cell cultures [4] (Rattus norvegicus, 5 min, 300 μM, 5 minutes, read-out: cell death at 300 μM NMDA) and 57.8 ± 2.6% in the data set with cortical cell cultures [4] (Rattus norvegicus, 300 μM NMDA + 10 μM glycine alone, read-out: Cell death, % ± SEM (NMDA)). Further, the “increase of the 50% lethal concentration of NMDA” value in the data set with cortical cell cultures [4] (arginase-treated preparations / L-Arg-free medium) is greater than 20 fold.

On to `N[C@@H](CCC(=O)O)C(=O)O` [glutamate], for which, in the data set with cortical cell cultures [4] (500 μM glutamate alone), the “Cell death, % ± SEM (glutamate)” value amounted to 48.4 ± 4.4%.

Consider `C=C(C)[C@H]1CN[C@H](C(=O)O)[C@H]1CC(=O)O` [kainate], for which the cytotoxicity at 100 µM in the data set with cortical cell cultures [4] (Rattus norvegicus, read-out: Cell death, % ± SEM (kainate)) amounted to 81.4 ± 7.1%. The “neurotoxic action relative to NMDA” value in the data set with cortical cell cultures [5] was “act more slowly and less potently than NMDA”.

For the compound `N[C@@H](Cn1oc(=O)[nH]c1=O)C(=O)O` [quisqualate], the cytotoxicity at 500 µM in the data set on cortical cell cultures [4] (Rattus norvegicus, 500 μM quisqualate alone, read-out: Cell death, % ± SEM (quisqualate)) was 64.2 ± 3.7%. Also, the “neurotoxic action relative to NMDA” value with cortical cell cultures [5] was “act more slowly and less potently than NMDA”.

For the compound “Hb: reduced hemoglobin (Hb), which binds NO”, in the data set with cortical cell cultures [4], the “effect on NMDA-induced cell death” value was “completely prevents NMDA-induced cell death; also recorded: reverses cell death” and the “effect on SNP-induced cell death” value is “completely prevents SNP-induced cell death; also recorded: completely reverses SNP-mediated cytotoxicity”. Further, in the data set with cortical cell cultures [4] (listed as Hemoglobin), the “effect on NMDA-induced cell death” value is “prevents neurotoxic effects of both N-methyl-D-aspartate and sodium nitroprusside”; the “effect on SNP-induced cell death” value was “prevents neurotoxic effects of both N-methyl-D-aspartate and sodium nitroprusside”. The “effect on NMDA stimulation of cGMP formation” value in the data set on cGMP formation was “antagonized”. Also, in the data set on cGMP formation (SNP, 1-minute exposure), the “effect on cGMP levels in cortical cells (SNP)” value was “blocked by Hb; also recorded: completely reverses SNP-mediated cytotoxicity and cGMP formation”.
